Data: ChEMBL document CHEMBL5728451, “Pyrimidinone derivatives as SHP2 antagonists” (2021)

Biological target: T1, Tyrosine-protein phosphatase non-receptor type 11 (Homo sapiens, UniProt Q06124)
T1 sequence (Q06124 whole entry): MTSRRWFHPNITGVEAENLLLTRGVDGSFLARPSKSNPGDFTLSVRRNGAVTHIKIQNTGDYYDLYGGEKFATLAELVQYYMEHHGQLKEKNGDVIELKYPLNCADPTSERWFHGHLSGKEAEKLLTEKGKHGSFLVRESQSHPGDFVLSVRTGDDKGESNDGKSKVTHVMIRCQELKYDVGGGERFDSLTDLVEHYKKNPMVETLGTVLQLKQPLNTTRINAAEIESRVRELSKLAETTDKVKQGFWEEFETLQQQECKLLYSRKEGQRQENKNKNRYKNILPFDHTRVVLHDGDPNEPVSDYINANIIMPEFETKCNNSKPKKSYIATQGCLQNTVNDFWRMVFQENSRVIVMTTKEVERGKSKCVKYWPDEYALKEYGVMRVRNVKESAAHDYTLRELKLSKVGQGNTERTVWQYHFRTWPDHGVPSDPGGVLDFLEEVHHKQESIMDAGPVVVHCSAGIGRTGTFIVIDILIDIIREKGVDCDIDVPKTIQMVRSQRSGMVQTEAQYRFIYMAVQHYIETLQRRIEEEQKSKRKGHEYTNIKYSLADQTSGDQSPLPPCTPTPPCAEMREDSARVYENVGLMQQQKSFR
Test: Biochemical Assay: The inhibition of SHP2 by compounds of the invention was monitored using the surrogate substrate DiFMUP after protein activation by a peptide bearing two appropriately spaced phosphotyrosine. Full length SHP2 protein (Recombinant HumanSHP-2, E. coli derived Ser2Arg593, N-terminal 6His tag from R&D systems; […]) was incubated with activating peptide, IRSI_2pY (New England …

| IC50 | SMILES |
| --- | --- |
| 1.5 µM | Cc1nc(N2CCC(C)(CN)CC2)cc(=O)n1-c1cccc(C(F)(F)F)c1Cl |
| 2.1 µM | Cc1nc(N2CCC3(CCCC3CN)CC2)cc(=O)n1-c1cccc(Cl)c1Cl (configuration not stated) |
